Where two headings read alike, the source gives them in different places.
Tests used:
[1] = type: physicochemical
[2] = type: physicochemical; remark: listed apart in the source

poly-L-lysine
absorbance plateau ([1]; pH 7): approximately 0.22
absorbance plateau ([1]; pH 11): approximately 0.12
CD minimum ([2]; pH 7): approximately 204 nm
CD minimum ([2]; pH 11): approximately 216 nm
